Where “and” joins values, the source holds several entries; their conditions need not be identical. Equal values may be shown once. Entries after “also recorded” stand apart in the source; their conditions may differ. Where a name gives a salt, the structure may show the parent alone. Read-outs that look alike come from different tables or passages of the source.
Assays:
rMAO-B = target: T1, rMAO-B (Rattus norvegicus, UniProt P19643); assay: rat MAO-B inhibition, kynuramine spectrophotometric assay; format: biochemical; settings: for inhibition at 10 µM: read-out: MAO-B % inhibition at 10 µM
T1 construct: from tissue; host or cells: rat brain mitochondrial homogenate
T1 sequence (P19643 1-520): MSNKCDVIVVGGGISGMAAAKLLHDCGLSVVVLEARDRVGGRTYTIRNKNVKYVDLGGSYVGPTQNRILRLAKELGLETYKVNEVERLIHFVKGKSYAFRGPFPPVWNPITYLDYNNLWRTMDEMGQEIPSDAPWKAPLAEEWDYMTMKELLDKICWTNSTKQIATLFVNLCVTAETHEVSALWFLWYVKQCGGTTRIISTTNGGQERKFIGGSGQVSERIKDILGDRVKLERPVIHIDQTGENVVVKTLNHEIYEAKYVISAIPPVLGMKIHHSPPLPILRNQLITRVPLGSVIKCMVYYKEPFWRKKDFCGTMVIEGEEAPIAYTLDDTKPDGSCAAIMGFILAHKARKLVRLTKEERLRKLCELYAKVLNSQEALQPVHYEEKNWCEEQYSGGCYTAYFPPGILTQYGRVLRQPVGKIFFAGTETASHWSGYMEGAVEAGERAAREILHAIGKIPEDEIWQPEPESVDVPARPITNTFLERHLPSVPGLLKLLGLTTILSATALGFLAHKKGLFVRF
Method: (§1) MAO inhibitory activities were measured on rat brain mitochondrial homogenates [21].
(§2) The rMAO inhibitory activity of compounds in Table 1 was assessed using a continuous spectrophotometric assay [28], monitoring the rate of oxidation of the nonselective nonfluorescent MAO substrate kynuramine to 4-hydroxyquinoline, as previously reported [21]. […] Finally, IC50 values were determined by nonlinear regression of MAO inhibition vs. -log of the concentration plots, using the program Origin, Version 6.0 (Microcal Software Inc., Northampton, MA, USA).

[1] = target: T2, equine serum butyrylcholinesterase (esBChE) (Equus caballus, UniProt P81908); assay: BChE inhibition, Ellman's method; format: biochemical; settings: read-out: BChE % inhibition at 10 µM
T2 construct: BChE from equine serum (13 U/mg; Sigma); purchased Sigma; host or cells: equine serum
T2 sequence (P81908 whole entry): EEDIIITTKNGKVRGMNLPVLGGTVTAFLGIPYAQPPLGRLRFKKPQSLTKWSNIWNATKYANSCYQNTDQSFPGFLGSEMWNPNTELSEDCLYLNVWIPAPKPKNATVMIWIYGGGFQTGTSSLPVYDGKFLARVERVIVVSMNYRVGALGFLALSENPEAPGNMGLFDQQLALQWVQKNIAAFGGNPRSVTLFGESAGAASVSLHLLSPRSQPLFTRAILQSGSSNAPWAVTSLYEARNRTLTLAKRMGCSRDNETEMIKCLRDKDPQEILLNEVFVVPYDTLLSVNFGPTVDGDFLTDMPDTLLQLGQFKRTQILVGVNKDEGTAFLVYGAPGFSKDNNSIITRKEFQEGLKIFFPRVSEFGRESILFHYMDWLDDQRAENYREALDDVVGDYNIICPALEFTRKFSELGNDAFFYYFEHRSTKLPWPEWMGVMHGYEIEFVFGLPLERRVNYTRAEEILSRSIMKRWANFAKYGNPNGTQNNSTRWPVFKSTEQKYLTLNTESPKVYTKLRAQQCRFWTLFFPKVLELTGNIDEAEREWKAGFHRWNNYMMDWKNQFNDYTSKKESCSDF
Method: 2H-Chromen-2-ones 3a–m and 8 were evaluated as inhibitors of electric eel AChE (eeAChE), equine serum butyrylcholinesterase (esBChE) and rat MAOs (rMAO-A and rMAO-B). In vitro enzymatic assays on ChEs were accomplished through the well-known spectrophotometric Ellman’s method [20].

[2] = target: T3, electric eel AChE (eeAChE) (Electrophorus electricus, UniProt O42275); assay: biochemical
T3 construct: purchased Sigma Aldrich, Milan, Italy
T3 sequence (O42275 24-633): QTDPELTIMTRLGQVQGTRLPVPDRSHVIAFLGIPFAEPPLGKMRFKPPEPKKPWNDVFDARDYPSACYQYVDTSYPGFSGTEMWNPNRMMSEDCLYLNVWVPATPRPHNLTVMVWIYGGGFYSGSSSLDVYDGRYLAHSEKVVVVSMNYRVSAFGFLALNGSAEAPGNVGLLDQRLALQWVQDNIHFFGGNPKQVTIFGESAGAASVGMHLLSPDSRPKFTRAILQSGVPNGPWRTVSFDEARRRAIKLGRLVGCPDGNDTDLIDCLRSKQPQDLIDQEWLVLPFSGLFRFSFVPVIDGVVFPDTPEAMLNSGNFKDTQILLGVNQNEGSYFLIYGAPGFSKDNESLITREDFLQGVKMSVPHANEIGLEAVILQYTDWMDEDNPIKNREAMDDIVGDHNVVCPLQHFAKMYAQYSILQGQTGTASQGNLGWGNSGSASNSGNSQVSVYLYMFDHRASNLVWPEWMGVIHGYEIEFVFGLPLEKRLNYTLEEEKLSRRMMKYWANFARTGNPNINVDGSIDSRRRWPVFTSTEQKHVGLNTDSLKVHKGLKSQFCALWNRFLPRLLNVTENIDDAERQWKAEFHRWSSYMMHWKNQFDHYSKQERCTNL

rMAO-A = target: T4, rMAO-A (Rattus norvegicus, UniProt P21396); assay: rat MAO-A inhibition, kynuramine spectrophotometric assay; format: biochemical; settings: rat brain homogenates; for inhibition at 10 µM: read-out: MAO-A % inhibition at 10 µM
T4 construct: from tissue; host or cells: rat brain mitochondrial homogenate
T4 sequence (P21396 1-526): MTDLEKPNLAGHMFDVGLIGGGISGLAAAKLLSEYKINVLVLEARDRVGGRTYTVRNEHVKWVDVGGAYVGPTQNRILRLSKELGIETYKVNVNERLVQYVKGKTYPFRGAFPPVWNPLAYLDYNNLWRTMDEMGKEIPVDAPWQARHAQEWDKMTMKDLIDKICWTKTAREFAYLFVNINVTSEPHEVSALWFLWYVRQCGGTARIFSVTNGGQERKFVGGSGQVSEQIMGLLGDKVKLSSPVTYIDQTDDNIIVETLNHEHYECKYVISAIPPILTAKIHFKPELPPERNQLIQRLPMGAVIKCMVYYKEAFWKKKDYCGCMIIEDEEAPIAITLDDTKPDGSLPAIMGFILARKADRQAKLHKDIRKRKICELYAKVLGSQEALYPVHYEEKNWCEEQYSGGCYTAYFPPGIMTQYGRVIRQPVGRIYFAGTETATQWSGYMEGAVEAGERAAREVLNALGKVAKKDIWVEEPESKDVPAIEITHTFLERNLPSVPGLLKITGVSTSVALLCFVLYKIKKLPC
Method: as §1, §2

P-gp (MDR1) = assay: in vitro; settings: dog, MDCK-MDR1, pH 7.4
SH-SY5Y cells [3] = assay: Neuroprotection against oxidative stress insults, MTT assay; format: cell-based, human
Method: Therefore, a preliminary evaluation of the cytotoxicity and neuroprotective efficacy of this hit compound was undertaken in the human SH-SY5Y neuroblastoma cell line by following the 3-(4,5-dimethylthiazol-2-yl)-2,5-diphenyl-tetrazolium bromide (MTT) assay [22].
Human neuroblastoma SH-SY5Y cells were dispensed into 96-well microtiter plates at a density of 10,000 cells/well. […] The cell viability was determined by the MTT assay and analyzed as above described. Each compound was tested in triplicate, and the experiments were repeated three times. Statistical significance was assigned to p < 0.01 and calculated using a one-way analysis of variance (ANOVA) followed by the Bonferroni post hoc tests (GraphPad Prism vers. 5).
Results are expressed as the percentage of viable cells, and data represent the means ± SD (n = 3).

SH-SY5Y cells [4] = assay: Cytotoxicity, MTT assay; format: cell-based; settings: 24 h incubation, 0.1–50 µM
Method: Human neuroblastoma cells SH-SY5Y were maintained at 37 °C in a humidified incubator containing 5% CO2 in DMEM nutrient (Lonza) supplemented with 10% heat inactivated FBS, 2 mM L-glutamine, 100 U/mL penicillin and 100 µg/mL streptomycin. Cells were dispensed into 96-well microtiter plates at a density of 10,000 cells/well. […] Then, the plates were incubated at 37 °C for 24 h. An amount of 10 µL of 0.5% w/v MTT was further added to each well, and the plates were incubated for an additional 3 h at 37 °C. Finally, the cells were lysed by the addition of 100 µL of DMSO/EtOH 1:1 (v/v) solution.
Untreated cells were used as the control.

[5] = from electric eel, read-out: AChE IC50
[6] = determined after 30 min pre-incubation

Row | Structure (SMILES) | inhibition at 10 µM (rMAO-B; rat brain homogenates) [%] | inhibition at 10 µM ([1]; from equine serum, 10 µM) [%] | IC50 [2, 5] | inhibition at 10 µM (rMAO-A) [%] | IC50 ([2]; AChE IC50, from electric eel) | further results
1 | COc1cc2cc(CNCC(N)=O)c(=O)oc2cc1OC [Compound 3l, N^2-[(6,7-Dimethoxy-2-oxo-2H-chromen-3-yl)methyl]glycinamide] | < 5 | 10 | 8 ± 1.2 µM | < 5 |  | 
2 | CNCc1cc2cc(OC)c(OC)cc2oc1=O [Compound 3i, 6,7-Dimethoxy-3-[(methylamino)methyl]-2H-chromen-2-one hydrochloride] | < 5 | 10 |  | < 5 | 13 ± 1 µM | 
3 | C#CCN(C)Cc1cc2ccccc2oc1=O [Compound 3c, 3-{[Methyl(prop-2-yn-1-yl)amino]methyl}-2H-chromen-2-one] |  | < 5 | 8.4 ± 0.5 µM |  |  | IC50 (rMAO-B; rat brain homogenates, determined after 30 min pre-incubation, read-out: MAO-B IC50): 0.377 ± 0.014 µM; IC50 (rMAO-A; [6]): 7 ± 1.4 µM
4 | NC(=O)CNCc1cc2ccccc2oc1=O [Compound 3a, N^2-[(2-oxo-2H-Chromen-3-yl)methyl]glycinamide] | < 5 | 6.2 | 12 ± 1 µM | < 5 |  | 
5 | C#CCN(C)Cc1cc2cc(OC)c(OC)cc2oc1=O.Cl [Compound 3h, 6,7-Dimethoxy-3-{[methyl(prop-2-yn-1-yl)amino]methyl}-2H-chromen-2-one hydrochloride] |  | < 5 |  |  | 8.99 µM and 9 µM | P-gp substrate (MDCKII-MDR1 cells): not likely to be a substrate for P-gp; also recorded: did not result in a glycoprotein-p (P-gp) substrate; Papp A→B at 120 min, 75 µM (P-gp (MDR1)): 22.7 ×10⁻⁶ cm/s; Papp B→A at 120 min, 75 µM (P-gp (MDR1)): 21.8 ×10⁻⁶ cm/s; IC50 (rMAO-B): 0.0028 ± 0.0004 µM; Neuroprotection against oligomycin-A (SH-SY5Y cells [3]; 0.1 µM compound, oligomycin-A 30 µM, 24 h co-incubation): moderate neuroprotection; also recorded: promising neuroprotective effect; Neuroprotection against rotenone (SH-SY5Y cells [3]; 0.1 µM compound, rotenone 75 µM, 24 h co-incubation): moderate neuroprotection; also recorded: promising neuroprotective effect; Neuroprotection (cell survival) (SH-SY5Y cells [3]; 1 µM compound, 24 h co-incubation with H2O2 195 µM, oligomycin-A 30 µM or rotenone 75 µM): no increase of cell survival; Cytotoxicity (viability of SH-SY5Y cells) (SH-SY5Y cells [4]): negligible cytotoxicity; also recorded: low cytotoxicity; inhibition at 10 µM (rMAO-A; [6]): < 5%
6 | COc1ccc2cc(CN(C)Cc3cccc(C#N)c3)c(=O)oc2c1 [Compound 3e, 3-{[[(7-Methoxy-2-oxo-2H-chromen-3-yl)methyl](methyl)amino]methyl}benzonitrile] | < 5 | < 5 | 8.4 ± 0.3 µM | 9.2 |  | 
7 | COc1cc2cc(CNCc3ccc(C#N)cc3)c(=O)oc2cc1OC [Compound 3k, 4-({[(6,7-Dimethoxy-2-oxo-2H-chromen-3-yl)methyl]amino}methyl)benzonitrile] | < 5 | 13 | 8.4 ± 1.1 µM | 20 |  | 
8 | COc1cc2cc(CN(C)Cc3cccc(Cl)c3)c(=O)oc2cc1OC [Compound 3g, 3-{[(3-Chlorobenzyl)(methyl)amino]methyl}-6,7-dimethoxy-2H-chromen-2-one hydrochloride] | < 5 | 19 |  | 7 | 4.4 ± 1.1 µM | 
9 | C#CCN(C)Cc1cc2cc(OC)c(O)cc2oc1=O [Compound 8, 7-Hydroxy-6-methoxy-3-{[methyl(prop-2-yn-1-yl)amino]methyl}-2H-chromen-2-one] |  | < 5 | 9.3 ± 0.4 µM |  |  | inhibition at 10 µM (rMAO-B; rat brain homogenates, determined after 30 min pre-incubation): 11%; inhibition at 10 µM (rMAO-A; [6]): 35%
10 | C#CCN(C)Cc1cc2ccc(OC)cc2oc1=O [Compound 3f, 7-Methoxy-3-{[methyl(prop-2-yn-1-yl)amino]methyl}-2H-chromen-2-one hydrochloride] |  |  |  |  | 14 ± 1 µM | inhibition at 10 µM [1]: 13%
11 | CNC(=O)CNCc1cc2cc(OC)c(OC)cc2oc1=O [Compound 3m, N^2-[(6,7-Dimethoxy-2-oxo-2H-chromen-3-yl)methyl]-N^1-methylglycinamide] | < 5 | 11 | 7.7 ± 0.4 µM | < 5 |  | 
12 | CN(Cc1cccc(F)c1)Cc1cc2ccccc2oc1=O [Compound 3b, 3-{[(3-Fluorobenzyl)(methyl)amino]methyl}-2H-chromen-2-one hydrochloride] | < 5 | 15 |  | < 5 | 6.8 ± 0.1 µM | 
13 | COc1ccc2cc(CN(C)Cc3cccc(F)c3)c(=O)oc2c1 [Compound 3d, 3-{[(3-Fluorobenzyl)(methyl)amino]methyl}-7-methoxy-2H-chromen-2-one] | < 5 | 8.5 | 6.6 ± 0.1 µM | 6 |  | 
14 | COc1cc2cc(CNCc3ccccc3)c(=O)oc2cc1OC [Compound 3j, 3-[(Benzylamino)methyl]-6,7-dimethoxy-2H-chromen-2-one] | < 5 | 27 | 2.78 µM and 2.8 µM | < 5 |  | 
